From patent US4791139A, “Diphenyl ether derivatives and their use as insecticides” (Imperial Chemical Industries PLC, priority 1986, dated 1988)

Columns and labels:
Format in all cases: in vivo
Myzus persicae (aphids) = assay: Contact test, aphids (MP), Chinese Cabbage leaf; conditions: 72 h, 3 days, read-out: MP grading of mortality
Procedure: The activity of the Product was determined using a variety of insect pests. The Product was used in the form of liquid preparations containing from 100 to 500 parts per million (ppm) by weight of the Product. The preparations were made by dissolving the Product in acetone and diluting the solutions with water containing 0.1% by weight of a wetting agent sold under the trade name "SYNPERONIC" NX until the liquid preparations contained the required concentration of the Product. "SYNPERONIC" is a Registered Trade Mark. The test procedure adopted with regard to each pest was basically the same and comprised supporting a number of the pests on a medium which was usually a host plant or a foodstuff on which the pests feed, and treating either or both the pests and the medium with the preparations. The mortality of the pests was then assessed at periods usually varying from one to seven days after the treatment. […] In Table III the pest organism used is designated by a letter code and the pests species, the support medium or food, and the type and duration of test is given in Table II.

[1] = tested on: Blattella germanica (cockroach nymphs); assay: Residual test, cockroach nymphs (BG), Plastic pot; conditions: 72 h, 3 days, read-out: BG grading of mortality
Procedure: (§1) The activity of the Product was determined using a variety of insect pests. The Product was used in the form of liquid preparations containing from 100 to 500 parts per million (ppm) by weight of the Product. The preparations were made by dissolving the Product in acetone and diluting the solutions with water containing 0.1% by weight of a wetting agent sold under the trade name "SYNPERONIC" NX until the liquid preparations contained the required concentration of the Product. "SYNPERONIC" is a Registered Trade Mark. The test procedure adopted with regard to each pest was basically the same and comprised supporting a number of the pests on a medium which was usually a host plant or a foodstuff on which the pests feed, and treating either or both the pests and the medium with the preparations. The mortality of the pests was then assessed at periods usually varying from one to seven days after the treatment.

[2] = tested on: Diabrotica balteata (rootworm larvae); assay: Residual test, rootworm larvae (DB), Filter paper/maize seed; conditions: 72 h, 3 days, read-out: DB grading of mortality
Procedure: as §1

[3] = tested on: Tetranychus urticae (spider mites - ova); assay: Contact test, spider mites - ova (TUe), French bean leaf; conditions: 144 h, 6 days, read-out: TUE grading of mortality
Procedure: as §1

[4] = tested on: Musca domestica (houseflies - adults); assay: Contact test, houseflies - adults (MD), Cotton wool/sugar; conditions: 24 h, 1 day, read-out: MD grading of mortality
Procedure: as §1

[5] = tested on: Nilaparvata lugens (brown plant hopper - nymphs); assay: Contact test, brown plant hopper - nymphs (NL), Rice plant; conditions: 72 h, 3 days, read-out: NL grading of mortality
Procedure: as §1

[6] = tested on: Musca domestica (houseflies - adults); assay: Knockdown test, houseflies - adults (MD/KD), Cotton wool/sugar; conditions: 4 hours, read-out: MD/KD grading of knockdown
Procedure: (§2) The activity of the Product was determined using a variety of insect pests. The Product was used in the form of liquid preparations containing from 100 to 500 parts per million (ppm) by weight of the Product. The preparations were made by dissolving the Product in acetone and diluting the solutions with water containing 0.1% by weight of a wetting agent sold under the trade name "SYNPERONIC" NX until the liquid preparations contained the required concentration of the Product. "SYNPERONIC" is a Registered Trade Mark.
(§3) The test procedure adopted with regard to each pest was basically the same and comprised supporting a number of the pests on a medium which was usually a host plant or a foodstuff on which the pests feed, and treating either or both the pests and the medium with the preparations. The mortality of the pests was then assessed at periods usually varying from one to seven days after the treatment.
In the case of the species Musca domestica (housefly), an additional assessment to determine the knockdown effect of the compounds was performed.
(§4) In Table III the pest organism used is designated by a letter code and the pests species, the support medium or food, and the type and duration of test is given in Table II.

[7] = tested on: Heliothis virescens (tobacco budworm - larvae); assay: Residual test, tobacco budworm - larvae (HV), Cotton leaf; conditions: 72 h, read-out: HV grading of mortality
Procedure: as §2, §3
(§5) The results of the tests are given in Table III for each of the Products, at the rate in parts per million given in the second column as a grading of mortality designated as A, B or C wherein A indicates 80-100% mortality or knockdown (70-100% for Meloidogyne incognita), B indicates 50-79% mortality knockdown or knockdown (50-69% for Meloidogyne incognita) and C indicates less than 50% mortality or knockdown.
as §4
(tobacco budworm - larvae)

[8] = tested on: Meloidogyne incognita (Tomato root knot eelworm - larvae); assay: Residual test, Tomato root knot eelworm - larvae (MI), Semi in-vitro; conditions: 168 h, application rate is half that recorded, 7 days, read-out: MI grading of mortality; for mortality at 250 µg/mL: rate column 500 ppm; for mortality at 125 µg/mL: rate 250 ppm
[9] = tested on: Tetranychus urticae (spider mites - adult); assay: Contact test, spider mites - adult (TUa), French bean leaf; conditions: 72 h, 3 days, read-out: TUA grading of mortality
Procedure: as §1

[10] = tested on: Spodoptera exigua (lesser army worm - larvae); assay: Residual test, lesser army worm - larvae (SP), Cotton leaf; conditions: 72 h, 3 days, read-out: SP grading of mortality
Procedure: as §2, §3, §5, §4
(lesser army worm - larvae)

Structure (SMILES): CCOc1ccc(C(CCCc2cccc(Oc3ccccc3)c2)C(F)F)cc1 (racemic) [Compound 66, 1,1-Difluoro-2-(4-ethoxyphenyl)-5-(3-phenoxyphenyl)pentane]
- mortality at 500 ppm (Myzus persicae (aphids)): 80 to 100%
- mortality at 500 ppm [1]: 80 to 100%
- mortality at 500 ppm [2]: 80 to 100%
- mortality at 500 ppm [3]: < 50%
- mortality at 500 ppm [4]: 80 to 100%
- mortality at 500 ppm [5]: 80 to 100%
- pest or weed control at 500 ppm [6]: < 50%
- mortality at 500 ppm [7]: 80 to 100%
- mortality at 250 µg/mL [8]: < 50%
- mortality at 500 ppm [9]: < 50%
- mortality at 500 ppm [10]: 80 to 100%

Structure (SMILES): OC(CCCc1cccc(Oc2ccccc2)c1)(c1ccc(OC(F)(F)F)cc1)C(F)(F)F (racemic) [Compound 59, 1,1,1-trifluoro-2-hydroxy-2-(4-trifluoromethoxyphenyl)-5-(3-phenoxyphenyl)pentane]
- mortality at 500 ppm (Myzus persicae (aphids)): < 50%
- mortality at 500 ppm [1]: < 50%
- mortality at 500 ppm [2]: 80 to 100%
- mortality at 500 ppm [3]: < 50%
- mortality at 500 ppm [4]: < 50%
- mortality at 500 ppm [5]: 80 to 100%
- pest or weed control at 500 ppm [6]: < 50%
- mortality at 500 ppm [7]: < 50%
- mortality at 250 µg/mL [8]: < 50%
- mortality at 500 ppm [9]: 80 to 100%
- mortality at 500 ppm [10]: < 50%

Structure (SMILES): CCOc1ccc(C(CC=Cc2cccc(Oc3ccccc3)n2)C(F)(F)F)cc1 (stereo not shown) [Compound 99, 1,1,1-Trifluoro-2-(4-ethoxyphenyl)-5-(6-phenoxypyrid-2-yl)pent-4-ene]
- mortality at 500 ppm (Myzus persicae (aphids)): 50 to 79%
- mortality at 500 ppm [1]: < 50%
- mortality at 500 ppm [2]: < 50%
- mortality at 500 ppm [3]: < 50%
- mortality at 500 ppm [4]: 80 to 100%
- mortality at 500 ppm [5]: < 50%
- pest or weed control at 500 ppm [6]: 80 to 100%
- mortality at 500 ppm [7]: 80 to 100%
- mortality at 250 µg/mL [8]: < 50%
- mortality at 500 ppm [9]: < 50%
- mortality at 500 ppm [10]: 50 to 79%

Structure (SMILES): Fc1ccc(CCCC(c2ccc(OC(F)(F)F)cc2)C(F)F)cc1Oc1ccccc1 (racemic) [Compound 27, 1,1-Difluoro-2-(4-trifluoromethoxyphenyl)-5-(4-fluoro-3-phenoxyphenyl)pentane]
- mortality at 500 ppm (Myzus persicae (aphids)): 80 to 100%
- mortality at 500 ppm [1]: 80 to 100%
- mortality at 500 ppm [2]: 80 to 100%
- mortality at 500 ppm [3]: < 50%
- mortality at 500 ppm [4]: 80 to 100%
- mortality at 500 ppm [5]: 80 to 100%
- pest or weed control at 500 ppm [6]: 80 to 100%
- mortality at 500 ppm [7]: 80 to 100%
- mortality at 250 µg/mL [8]: < 50%
- mortality at 500 ppm [9]: 80 to 100%
- mortality at 500 ppm [10]: 80 to 100%

Structure (SMILES): CCOc1ccc(C(CCCc2c(F)c(F)c(F)c(F)c2F)C(F)(F)F)cc1 (racemic) [Compound 43, 1,1,1-Trifluoro-2-(4-ethoxyphenyl)-5-(pentafluorophenyl)pentane]
- mortality at 500 ppm (Myzus persicae (aphids)): < 50%
- mortality at 500 ppm [1]: 50 to 79%
- mortality at 500 ppm [2]: 80 to 100%
- mortality at 500 ppm [3]: < 50%
- mortality at 500 ppm [4]: 50 to 79%
- mortality at 500 ppm [5]: < 50%
- pest or weed control at 500 ppm [6]: 50 to 79%
- mortality at 500 ppm [7]: < 50%
- mortality at 250 µg/mL [8]: < 50%
- mortality at 500 ppm [9]: < 50%
- mortality at 500 ppm [10]: 80 to 100%

Structure (SMILES): CCOc1ccc(C(=CC=Cc2cccc(Oc3ccccc3)n2)C(F)(F)F)cc1 [Compound 100, 1,1,1-Trifluoro-2-(4-ethoxyphenyl)-5-(6-phenoxypyrid-2-yl)penta-2,4-diene]
- mortality at 500 ppm (Myzus persicae (aphids)): < 50%
- mortality at 500 ppm [1]: < 50%
- mortality at 500 ppm [2]: < 50%
- mortality at 500 ppm [3]: < 50%
- mortality at 500 ppm [4]: < 50%
- mortality at 500 ppm [5]: 50 to 79%
- pest or weed control at 500 ppm [6]: 50 to 79%
- mortality at 500 ppm [7]: < 50%
- mortality at 250 µg/mL [8]: < 50%
- mortality at 500 ppm [9]: < 50%
- mortality at 500 ppm [10]: < 50%

Structure (SMILES): Fc1cc(Br)c(C(=CC=Cc2cccc(Oc3ccccc3)c2)C(F)(F)F)c(F)c1OC(F)(F)F [Compound 74, 1,1,1-Trifluoro-2-(2-bromo-4,6-difluoro-5-trifluoromethoxyphenyl)-5-(3-phenoxyphenyl)penta-2,4-diene]
- mortality at 500 ppm (Myzus persicae (aphids)): < 50%
- mortality at 500 ppm [1]: < 50%
- mortality at 500 ppm [2]: < 50%
- mortality at 500 ppm [3]: < 50%
- mortality at 500 ppm [4]: < 50%
- mortality at 500 ppm [5]: < 50%
- pest or weed control at 500 ppm [6]: < 50%
- mortality at 500 ppm [7]: < 50%
- mortality at 250 µg/mL [8]: < 50%
- mortality at 500 ppm [9]: 50 to 79%
- mortality at 500 ppm [10]: < 50%

Structure (SMILES): FC(F)(F)Oc1ccc(C(Cl)(CCCc2cccc(Oc3ccccc3)c2)C(F)(F)F)cc1 (racemic) [Compound 62, 1,1,1-trifluoro-2-chloro-2-(4-trifluoromethoxyphenyl)-5-(3-phenoxyphenyl)pentane]
- mortality at 250 ppm (Myzus persicae (aphids)): < 50%
- mortality at 250 ppm [1]: < 50%
- mortality at 250 ppm [2]: < 50%
- mortality at 250 ppm [3]: < 50%
- mortality at 250 ppm [4]: < 50%
- mortality at 250 ppm [5]: < 50%
- pest or weed control at 250 ppm [6]: < 50%
- mortality at 250 ppm [7]: < 50%
- mortality at 125 µg/mL [8]: < 50%
- mortality at 250 ppm [9]: < 50%
- mortality at 250 ppm [10]: < 50%

Structure (SMILES): CC1(C)Oc2ccc(C(CCCc3cccc(Oc4ccccc4)c3)C(F)(F)F)cc2O1 (stereo not shown) [Compound 58, 1,1,1-Trifluoro-2-[3,4-(dimethylmethylenedioxy)phenyl]-5-(3-phenoxyphenyl)pentane]
- mortality at 500 ppm (Myzus persicae (aphids)): 50 to 79%
- mortality at 500 ppm [1]: 80 to 100%
- mortality at 500 ppm [2]: 80 to 100%
- mortality at 500 ppm [3]: 80 to 100%
- mortality at 500 ppm [4]: 80 to 100%
- mortality at 500 ppm [5]: 80 to 100%
- pest or weed control at 500 ppm [6]: 80 to 100%
- mortality at 500 ppm [7]: < 50%
- mortality at 250 µg/mL [8]: < 50%
- mortality at 500 ppm [9]: < 50%
- mortality at 500 ppm [10]: 50 to 79%

Structure (SMILES): Fc1ccc(C=CC=C(c2ccc(OC(F)(F)F)cc2)C(F)(F)Cl)cc1Oc1ccccc1 [Compound 76, 1,1-Difluoro-1-chloro-2-(4-trifluoromethoxyphenyl)-5-(4-fluoro-3-phenoxyphenyl)penta-2,4-diene]
- mortality at 500 ppm (Myzus persicae (aphids)): < 50%
- mortality at 500 ppm [1]: < 50%
- mortality at 500 ppm [2]: 80 to 100%
- mortality at 500 ppm [3]: < 50%
- mortality at 500 ppm [4]: < 50%
- mortality at 500 ppm [5]: 80 to 100%
- pest or weed control at 500 ppm [6]: < 50%
- mortality at 500 ppm [7]: < 50%
- mortality at 250 µg/mL [8]: < 50%
- mortality at 500 ppm [9]: < 50%
- mortality at 500 ppm [10]: < 50%

Structure (SMILES): FC(F)(F)Oc1ccc(C(F)(CCCc2cccc(Oc3ccccc3)c2)C(F)(F)F)cc1 (racemic) [Compound 60, 1,1,1,2-tetrafluoro-2-(4-trifluoromethoxyphenyl)-5-(3-phenoxyphenyl)pentane]
- mortality at 250 ppm (Myzus persicae (aphids)): 80 to 100%
- mortality at 250 ppm [1]: 80 to 100%
- mortality at 250 ppm [2]: 80 to 100%
- mortality at 250 ppm [3]: 80 to 100%
- mortality at 250 ppm [4]: 80 to 100%
- mortality at 250 ppm [5]: 80 to 100%
- pest or weed control at 250 ppm [6]: 80 to 100%
- mortality at 250 ppm [7]: 80 to 100%
- mortality at 125 µg/mL [8]: < 50%
- mortality at 250 ppm [9]: 80 to 100%
- mortality at 250 ppm [10]: 80 to 100%
